For one cell line, relative viability results are on record in the supplement of paper PMC10307832.

Common to all, as to test: relative viability (nuclei count vs DMSO), 5 days (fraction); higher = more cells survive
Compound in one test: Nc1nc(Nc2ccc3c(c2)CC[C@@H](N2CCCC2)CC3)nn1-c1cc2c(nn1)-c1ccccc1CCC2 [Bemcentinib]
The gist of the method: (§1)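 Viability was read as treated-well nuclei divided by vehicle-well nuclei, using the median across plates. Lung cancer cell lines in 1536-well plates were kept overnight at 37 °C, pinned with five √10-spaced library-drug doses, and after 5 days were Hoechst-stained, imaged at 4× and counted in MetaXpress. Plates passed only with control CV below 25% and at least one doubling.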

Compound in another test: CNC(=O)c1ccccc1Sc1ccc2c(/C=C/c3ccccn3)n[nH]c2c1 [Axitinib]
In short, it runs like this: as §1

Compound in another test: CC1=CC=C(C=C1)C(=O)CN2C3=C(CCCC3)SC2=N [Pifithrin_alpha]
In short, it runs like this:
as §1

Compound in the test “Axitinib + Decitabine”: CNC(=O)c1ccccc1Sc1ccc2c(/C=C/c3ccccn3)n[nH]c2c1 [Axitinib] + Nc1ncn([C@H]2C[C@H](O)[C@@H](CO)O2)c(=O)n1 [Decitabine] (partner 2 µM)
In short, it runs like this:
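The day after seeding in 1536-well plates, lung cancer cell lines were treated by pin tool with a single drug, or with a fixed anchor-drug dose together with five library-drug doses (not always all listed) in √10 steps. After 5 days, a combined fix-and-stain solution (final 0.05% Triton X-100, 1% formaldehyde, 1 ug/ml Hoechst) was added. Nuclei counted on 4× images gave relative viability as treated counts over vehicle counts, reported as the median of duplicate plates.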

Consider NCI-H650, for which the relative viability with Bemcentinib (0.04 µM) stood at 0.866; in the test with Bemcentinib (0.1265 µM), 1.01; with Bemcentinib (0.4 µM), 1.15; with Bemcentinib (1.265 µM) it was 0.838; with Bemcentinib (4 µM) it was 0.871; with Axitinib (0.005 µM), 1.01. For the same cell line, the relative viability with Axitinib (0.01581 µM) is 0.983; with Axitinib (0.05 µM), 0.892; in the test with Axitinib (0.1581 µM) it was 1.1; in the test with Axitinib (0.5 µM), 1.01; with Pifithrin_alpha (3.162 µM) it was 0.912; with Pifithrin_alpha (10 µM) it was 1.07. Moreover, the relative viability in the test with Pifithrin_alpha (31.62 µM) was found to be 0.766; with Pifithrin_alpha (100 µM) it was 0.863; with Axitinib + Decitabine (first compound 0.005 µM), 0.287; with Axitinib + Decitabine (first compound 0.01581 µM) it was 0.335; with Axitinib + Decitabine (first compound 0.05 µM), 0.289; in the test with Axitinib + Decitabine (first compound 0.1581 µM) it was 0.31. The relative viability with Axitinib + Decitabine (first compound 0.5 µM) was 0.306.
